# Experimental data reported in ChEMBL document CHEMBL4619816, “GSK973 Is an Inhibitor of the Second Bromodomains (BD2s) of the Bromodomain and Extra-Terminal (BET) Family” (ACS Med Chem Lett, 2020).
# pIC50: −log10 of the molar value.
# Experiments:
# [1] = Chromatographic hydrophobicity index, log D of the compound in pH 7.4 ammonium acetate buffer/acetonitrile gradient by HPLC analysis; assay type: physicochemical
# [2] = tested on: Blood; test: Inhibition of LPS-induced MCP1 production in human whole blood preincubated for 30 mins followed by LPS addition measured after 24 hrs by immuno assay; assay type: functional, tissue-based
# [3] = target: Bromodomain-containing protein 4 (Homo sapiens, UniProt O60885, Y390A); test: Displacement of Alexa Fluor 647 labelled ligand from His6-tagged BRD4 BD1 (1 to 477 residues)/BD2 Y390A mutant (unknown origin) after 30 mins by TR-FRET assay
# [4] = tested on: Bromodomain-containing protein 4 (Homo sapiens), O60885 [UNDEFINED MUTATION]; test: Selectivity index, ratio of IC50 for displacement of Alexa Fluor 647 labelled ligand from His6-tagged BRD4 BD1 (1 to 477 residues)/BD2 Y390A mutant (unknown origin) to IC50 for displacement of Alexa Fluor 647 labelled ligand from His6-tagged BRD4 BD2 (1 to 477 residues)/BD1 Y97A mutant (unknown origin)
# [5] = Permeability of compound by artificial membrane assay; assay type: ADME; conditions: PAMPA; read-out: permeability
# [6] = Solubility of compound by CLND method; assay type: physicochemical
# [7] = Clearance in Wistar Han rat hepatocytes assessed as per gram tissue at 0.5 uM by LC-MS/MS analysis; assay type: ADME, cell-based, Hepatocyte
# [8] = Clearance in Wistar Han rat at 1 mg/kg administered as iv infusion for 1 hr and measured up to 7 hrs by LC-MS/MS analysis; assay type: ADME, organism-based; conditions: in vivo
# [9] = Renal clearance in Wistar Han rat at 1 mg/kg administered as iv infusion for 1 hr and measured up to 7 hrs by LC-MS/MS analysis; assay type: ADME, organism-based; conditions: in vivo
# [10] = Volume of distribution at steady state in Wistar Han rat at 1 mg/kg administered as iv infusion for 1 hr and measured up to 7 hrs by LC-MS/MS analysis; assay type: ADME, organism-based; conditions: in vivo, read-out: Vdss
# [11] = Half life in Wistar Han rat at 1 mg/kg administered as iv infusion for 1 hr and measured up to 7 hrs by LC-MS/MS analysis; assay type: ADME, organism-based; conditions: in vivo
# [12] = Oral bioavailability in Wistar Han rat at 3 mg/kg administered via gavage and measured up to 7 hrs by LC-MS/MS analysis; assay type: ADME, organism-based; conditions: in vivo
# [13] = Clearance in human pooled hepatocytes assessed as per gram tissue at 0.5 uM measured up to 2 hrs by LC-MS/MS analysis; assay type: ADME, cell-based, Hepatocyte
# [14] = Clearance in Beagle dog hepatocytes assessed as per gram tissue at 0.5 uM measured up to 2 hrs by LC-MS/MS analysis; assay type: ADME, cell-based, Canis lupus familiaris, Hepatocyte
# [15] = target: Bromodomain-containing protein 4 (Homo sapiens, UniProt O60885, Y97A); test: Displacement of Alexa Fluor 647 labelled ligand from His6-tagged BRD4 BD2 (1 to 477 residues)/BD1 Y97A mutant (unknown origin) after 30 mins by TR-FRET assay
# [16] = tested on: PBMC; test: Inhibition of LPS-induced MCP1 production in human PBMC; assay type: functional, cell-based
# [17] = target: serum albumin (Homo sapiens, UniProt P02768); test: Binding affinity to human serum albumin; assay type: ADME; conditions: read-out: PB (converted)
# Sequence of serum albumin (P02768 whole entry): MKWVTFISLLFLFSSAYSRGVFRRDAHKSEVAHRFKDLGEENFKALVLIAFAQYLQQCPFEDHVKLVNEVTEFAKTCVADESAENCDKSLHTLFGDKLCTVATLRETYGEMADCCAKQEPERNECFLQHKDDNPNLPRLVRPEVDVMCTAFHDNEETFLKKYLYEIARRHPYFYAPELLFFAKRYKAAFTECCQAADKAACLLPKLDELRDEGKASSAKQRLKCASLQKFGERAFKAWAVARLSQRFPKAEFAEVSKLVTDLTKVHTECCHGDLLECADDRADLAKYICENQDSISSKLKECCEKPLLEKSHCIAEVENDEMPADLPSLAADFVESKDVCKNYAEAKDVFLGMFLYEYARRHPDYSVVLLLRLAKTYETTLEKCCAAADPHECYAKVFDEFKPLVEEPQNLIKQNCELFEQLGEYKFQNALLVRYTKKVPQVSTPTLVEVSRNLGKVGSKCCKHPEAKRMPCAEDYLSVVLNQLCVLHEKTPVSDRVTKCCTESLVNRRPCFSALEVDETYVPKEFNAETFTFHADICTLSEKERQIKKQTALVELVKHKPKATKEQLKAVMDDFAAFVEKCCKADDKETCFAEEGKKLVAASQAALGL
# [18] = Clearance in human pooled hepatocytes assessed as per gram tissue at 0.5 uM by LC-MS/MS analysis; assay type: ADME, cell-based, Hepatocyte
# [19] = Clearance in Wistar Han rat hepatocytes assessed as per gram tissue at 0.5 uM measured up to 1 hr by LC-MS/MS analysis; assay type: ADME, cell-based, Hepatocyte
# [20] = Clearance in Beagle dog hepatocytes assessed as per gram tissue at 0.5 uM measured up to 1 hr by LC-MS/MS analysis; assay type: ADME, cell-based, Canis lupus familiaris, Hepatocyte
CHI [1],pIC50 [2],pIC50 [3],Ratio IC50 [4],pIC50 [15],Compound,other results
3,6.70,4.80,800,–,CNC(=O)c1cc(C(=O)N[C@@H]2C[C@H]2CO)cc2c1O[C@H](CF)[C@H]2c1ccccc1,Papp [5]: 7.3 ×10⁻⁶ cm/s; solubility kinetic [6]: 114 µg/mL; CLH [7]: 1.65 mL/min/g; clearance [8]: 98 mL/min/kg; CL renal [9]: 4 mL/min/kg; Vd [10]: 1.7 L/kg; half-life [11]: 30 min; bioavailability [12]: 15%; CLH [13]: < 0.45 mL/min/g; CLH [14]: < 0.65 mL/min/g
2.18,6.80,4.30,1200,7.40,CNC(=O)c1cc(C(=O)NCC[C@@H]2CNCCO2)cc2c1O[C@H](CF)[C@H]2c1ccccc1,CLH [7]: 1.28 mL/min/g; CLH [13]: < 0.45 mL/min/g; CLH [14]: < 0.65 mL/min/g
4.24,6.70,–,1600,–,CNC(=O)c1cc(C(=O)NC2CC2)cc2c1O[C@H](C)[C@H]2c1ccccc1,pIC50 [16]: 8.20; Papp [5]: 44 ×10⁻⁶ cm/s; solubility kinetic [6]: 137 µg/mL; fraction unbound [17]: 0.11; CLH [7]: 2.48 mL/min/g; CLH [18]: 1.42 mL/min/g; clearance [8]: 90 mL/min/kg; CL renal [9]: 0.2 mL/min/kg; Vd [10]: 2.3 L/kg; half-life [11]: 24 min
3.94,6.70,–,–,–,CNC(=O)c1cc(C(=O)NC2CC2)cc2c1O[C@H](CF)[C@H]2c1ccccc1,CLH [18]: < 0.45 mL/min/g; CLH [19]: 3.2 mL/min/g; CLH [20]: < 1.26 mL/min/g
2.89,–,–,–,–,CNC(=O)c1cc(C(N)=O)cc2c1O[C@H](CF)[C@H]2c1ccccc1,–
2.92,6.50,4.50,400,7.10,CNC(=O)c1cc(C(=O)N[C@H]2C[C@H](O)C2)cc2c1O[C@H](CF)[C@H]2c1ccccc1,CLH [7]: 1.84 mL/min/g; CLH [18]: < 0.45 mL/min/g
3.51,–,< 4.30,> 300,6.80,CNC(=O)c1cc(C(=O)NC2CCOC2)cc2c1O[C@H](CF)[C@H]2c1ccccc1 (stereo partly specified),–
3.28,–,4.80,160,7.00,CNC(=O)c1cc(C(N)=O)cc2c1O[C@H](C)[C@H]2c1ccccc1,–
3.12,–,< 4.30,> 320,6.80,CNC(=O)c1cc(C(=O)NCCO)cc2c1O[C@H](C)[C@H]2c1ccccc1,–
3.55,–,4.90,400,7.50,CNC(=O)c1cc(C(=O)NC)c2c(c1)[C@H](c1ccccc1)[C@@H](C)O2,–
3.81,–,4.40,200,6.70,CNC(=O)c1cc(C(=O)NCCOC)cc2c1O[C@H](C)[C@H]2c1ccccc1,–
2.53,6.10,–,–,–,CNC(=O)c1cc(C(=O)NC2CC2)cc2c1O[C@H](CO)[C@H]2c1ccccc1,Papp [5]: 26.6 ×10⁻⁶ cm/s; solubility kinetic [6]: > 177 µg/mL; fraction unbound [17]: 0.21; CLH [7]: < 0.8 mL/min/g; CLH [18]: < 0.45 mL/min/g; clearance [8]: 74 mL/min/kg; CL renal [9]: 23 mL/min/kg; Vd [10]: 1.4 L/kg; half-life [11]: 24 min; bioavailability [12]: 2%
4.53,7.00,–,–,–,CNC(=O)c1cc(C(=O)N[C@H]2C[C@@H]2C)cc2c1O[C@H](CF)[C@H]2c1ccccc1,–
4.11,–,4.40,1000,7.40,CCNC(=O)c1cc(C(=O)NC)c2c(c1)[C@H](c1ccccc1)[C@@H](C)O2,–
3.34,6.70,–,–,–,CNC(=O)c1cc(C(=O)NC)c2c(c1)[C@H](c1ccccc1)[C@@H](CF)O2,CLH [18]: < 0.45 mL/min/g; CLH [19]: 3.02 mL/min/g

# More lines, now with the values behind:
Compound,CHI [1],pIC50 [2],pIC50 [3],Ratio IC50 [4],pIC50 [15],other results
CNC(=O)c1cc(C(=O)NCCO)cn(Cc2ccccc2)c1=O,1.9,–,–,–,–,–
CNC(=O)c1cc(C(N)=O)cn(Cc2ccccc2)c1=O,2.03,–,–,–,–,–
CNC(=O)c1cccc2c1O[C@@H](c1ccccc1)[C@@H]2C,–,–,–,5,5.00,–
CNC(=O)c1cc(C(=O)NCCOC)cn(Cc2ccccc2)c1=O,2.74,–,–,–,–,–
CNC(=O)c1cc(C(=O)NC2CC2)cn(Cc2ccccc2)c1=O [GSK620],3.07,–,–,–,–,–
CNC(=O)c1cc(C(=O)NC)c(=O)n(Cc2ccccc2)c1,2.38,–,–,–,–,–
CCNC(=O)c1cc(C(=O)NC)c(=O)n(Cc2ccccc2)c1,2.99,–,–,–,–,–
CNC(=O)c1cc(C(=O)NCCC[C@H]2OC[C@H](N)CO2)cc2c1O[C@H](CF)[C@H]2c1ccccc1,2.94,6.90,–,–,–,Papp [5]: 4.5 ×10⁻⁶ cm/s; CLH [7]: 1.39 mL/min/g; clearance [8]: 73 mL/min/kg; CL renal [9]: 10 mL/min/kg; Vd [10]: 2.1 L/kg; half-life [11]: 36 min; bioavailability [12]: 3%
CNC(=O)c1cccc2c1O[C@@H](C)[C@H]2c1ccccc1,–,–,–,10,5.60,–
"CNC(=O)c1cccc2c1O[C@H](C)[C@H]2c1ccccc1 (single isomer, unassigned)",–,–,–,25,6.10,–
